From PMC6688997 (Nature Communications, 2019)

Experiments:
Assay in all cases: Kinase assay, 1 mM ATP
Format in all cases: biochemical
AurB = AurB (Homo sapiens, UniProt Q96GD4)
Method: (§1) An off-chip mobility shift assay was performed by Carna Biosciences, Inc. (Kobe, Japan), according to their product instructions. […] The IC50 values were estimated according to the four-parameter logistic model.

BRK = biological target: T1, BRK (Homo sapiens, UniProt Q13882)
T1 construct: purchased Carna Biosciences
Method: as §1

CDC2/CycB1 = CDC2/CycB1 (Homo sapiens, UniProt P06493)
Method: as §1

CDC7/ASK = biological target: T2, CDC7/ASK (Homo sapiens, UniProt O00311)
T2 construct: purchased Carna Biosciences
Method: as §1

CDK3/CycE1 = CDK3/CycE1 (Homo sapiens, UniProt Q00526)
Method: as §1

CLK1 = CLK1 (Homo sapiens, UniProt P49759)
Method: as §1

CSK = CSK (Homo sapiens, UniProt P41240)
Method: as §1

CaMK4 = CaMK4 (Homo sapiens, UniProt Q16566)
Method: as §1

DYRK1A = DYRK1A (Homo sapiens, UniProt Q13627)
Method: as §1

EGFR(T790M) = biological target: T3, EGFR(T790M) (Homo sapiens, UniProt P00533, T790M)
T3 construct: purchased Carna Biosciences
Method: as §1

EPHA1 = EPHA1 (Homo sapiens, UniProt P21709)
Method: as §1

EPHA2 = EPHA2 (Homo sapiens, UniProt P29317)
Method: as §1

EPHA4 = biological target: T4, EPHA4 (Homo sapiens, UniProt P54764)
T4 construct: purchased Carna Biosciences
T4 sequence (P54764 20-986): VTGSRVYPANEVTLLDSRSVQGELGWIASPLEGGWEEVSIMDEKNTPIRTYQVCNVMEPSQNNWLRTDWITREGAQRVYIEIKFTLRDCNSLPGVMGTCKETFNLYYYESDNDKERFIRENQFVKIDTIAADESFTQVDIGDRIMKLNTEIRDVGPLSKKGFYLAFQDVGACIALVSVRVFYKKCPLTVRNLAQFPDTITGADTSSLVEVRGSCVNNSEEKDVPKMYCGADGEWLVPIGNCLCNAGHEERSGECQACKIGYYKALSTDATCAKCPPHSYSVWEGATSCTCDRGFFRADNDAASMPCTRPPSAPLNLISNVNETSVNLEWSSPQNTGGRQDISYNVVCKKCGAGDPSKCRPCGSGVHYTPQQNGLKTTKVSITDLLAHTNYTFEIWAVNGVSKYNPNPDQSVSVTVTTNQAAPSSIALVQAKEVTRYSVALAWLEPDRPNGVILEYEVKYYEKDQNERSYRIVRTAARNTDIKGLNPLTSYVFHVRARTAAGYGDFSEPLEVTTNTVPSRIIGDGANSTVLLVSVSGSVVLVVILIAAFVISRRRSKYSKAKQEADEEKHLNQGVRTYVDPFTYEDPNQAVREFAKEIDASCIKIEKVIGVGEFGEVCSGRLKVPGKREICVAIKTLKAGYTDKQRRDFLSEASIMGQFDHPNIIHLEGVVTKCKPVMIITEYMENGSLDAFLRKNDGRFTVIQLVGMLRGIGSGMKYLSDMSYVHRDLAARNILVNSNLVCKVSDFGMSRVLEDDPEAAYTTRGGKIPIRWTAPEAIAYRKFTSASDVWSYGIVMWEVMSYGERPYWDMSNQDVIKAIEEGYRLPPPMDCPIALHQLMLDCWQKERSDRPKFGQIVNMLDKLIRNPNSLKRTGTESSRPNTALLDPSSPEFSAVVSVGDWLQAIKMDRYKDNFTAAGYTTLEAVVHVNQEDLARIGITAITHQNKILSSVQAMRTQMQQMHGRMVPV
Method: as §1

EPHA7 = EPHA7 (Homo sapiens, UniProt Q15375)
Method: as §1

EPHB1 = EPHB1 (Homo sapiens, UniProt P54762)
Method: as §1

EPHB2 = EPHB2 (Homo sapiens, UniProt P29323)
EPHB2, sequence (P29323 19-1055): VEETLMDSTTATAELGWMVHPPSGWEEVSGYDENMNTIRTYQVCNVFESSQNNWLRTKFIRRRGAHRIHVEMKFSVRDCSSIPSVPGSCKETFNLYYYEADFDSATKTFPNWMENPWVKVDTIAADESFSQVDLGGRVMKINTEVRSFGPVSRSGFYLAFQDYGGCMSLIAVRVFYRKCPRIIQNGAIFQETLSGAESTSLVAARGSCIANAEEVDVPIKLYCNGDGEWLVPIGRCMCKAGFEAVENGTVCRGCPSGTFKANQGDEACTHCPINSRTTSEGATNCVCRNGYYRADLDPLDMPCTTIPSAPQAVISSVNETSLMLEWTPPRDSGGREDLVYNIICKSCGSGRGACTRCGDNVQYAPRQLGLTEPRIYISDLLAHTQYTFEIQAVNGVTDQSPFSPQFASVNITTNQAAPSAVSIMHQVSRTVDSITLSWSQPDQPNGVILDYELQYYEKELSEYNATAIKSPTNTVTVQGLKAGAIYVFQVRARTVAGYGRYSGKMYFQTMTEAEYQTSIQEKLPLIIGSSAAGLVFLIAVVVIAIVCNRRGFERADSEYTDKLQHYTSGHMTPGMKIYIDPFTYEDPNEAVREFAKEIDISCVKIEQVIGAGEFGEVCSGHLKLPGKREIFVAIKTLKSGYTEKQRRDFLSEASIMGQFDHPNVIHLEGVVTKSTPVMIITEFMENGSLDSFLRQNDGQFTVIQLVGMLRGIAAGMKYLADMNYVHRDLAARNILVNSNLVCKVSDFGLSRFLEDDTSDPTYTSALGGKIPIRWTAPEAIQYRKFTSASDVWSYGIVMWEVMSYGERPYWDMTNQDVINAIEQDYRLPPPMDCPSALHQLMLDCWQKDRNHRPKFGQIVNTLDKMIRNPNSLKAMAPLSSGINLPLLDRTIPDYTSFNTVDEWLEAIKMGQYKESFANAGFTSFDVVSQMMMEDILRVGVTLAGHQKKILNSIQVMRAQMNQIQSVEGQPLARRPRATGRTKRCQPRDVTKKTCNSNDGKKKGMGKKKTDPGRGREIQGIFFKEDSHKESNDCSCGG
Method: as §1

EPHB3 = EPHB3 (Homo sapiens, UniProt P54753)
Method: as §1

EPHB4 = EPHB4 (Homo sapiens, UniProt P54760)
Method: as §1

Erk2 = Erk2 (Homo sapiens, UniProt P28482)
Method: as §1

Erk5 = biological target: T5, Erk5 (Homo sapiens, UniProt Q13164)
T5 construct: purchased Carna Biosciences
T5 sequence (Q13164 whole entry): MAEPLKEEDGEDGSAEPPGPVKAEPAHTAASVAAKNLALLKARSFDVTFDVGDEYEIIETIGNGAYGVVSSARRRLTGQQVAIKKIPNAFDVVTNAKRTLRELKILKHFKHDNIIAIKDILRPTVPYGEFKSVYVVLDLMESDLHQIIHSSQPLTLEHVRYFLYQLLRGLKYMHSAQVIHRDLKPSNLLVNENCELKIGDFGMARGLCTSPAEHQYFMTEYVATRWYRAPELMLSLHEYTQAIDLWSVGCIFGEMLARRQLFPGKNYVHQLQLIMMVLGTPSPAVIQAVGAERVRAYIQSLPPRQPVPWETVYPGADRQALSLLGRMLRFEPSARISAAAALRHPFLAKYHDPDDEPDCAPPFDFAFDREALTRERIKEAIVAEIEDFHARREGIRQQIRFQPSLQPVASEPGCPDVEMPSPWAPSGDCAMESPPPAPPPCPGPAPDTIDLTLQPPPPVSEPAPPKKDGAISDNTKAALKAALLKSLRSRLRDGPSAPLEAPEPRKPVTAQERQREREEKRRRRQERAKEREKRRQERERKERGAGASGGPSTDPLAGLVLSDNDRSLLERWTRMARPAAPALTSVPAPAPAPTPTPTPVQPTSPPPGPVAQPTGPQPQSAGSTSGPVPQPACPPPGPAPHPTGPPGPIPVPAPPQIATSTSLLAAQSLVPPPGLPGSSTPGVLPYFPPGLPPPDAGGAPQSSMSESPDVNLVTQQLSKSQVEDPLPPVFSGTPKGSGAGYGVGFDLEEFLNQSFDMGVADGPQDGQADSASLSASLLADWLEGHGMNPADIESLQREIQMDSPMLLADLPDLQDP
Method: as §1

FES = FES (Homo sapiens, UniProt P07332)
Method: as §1

FGFR4 = FGFR4 (Homo sapiens, UniProt P22455)
Method: as §1

FLT4 = biological target: T6, FLT4 (Homo sapiens, UniProt P35916)
T6 construct: purchased Carna Biosciences
T6 sequence (P35916 25-1363): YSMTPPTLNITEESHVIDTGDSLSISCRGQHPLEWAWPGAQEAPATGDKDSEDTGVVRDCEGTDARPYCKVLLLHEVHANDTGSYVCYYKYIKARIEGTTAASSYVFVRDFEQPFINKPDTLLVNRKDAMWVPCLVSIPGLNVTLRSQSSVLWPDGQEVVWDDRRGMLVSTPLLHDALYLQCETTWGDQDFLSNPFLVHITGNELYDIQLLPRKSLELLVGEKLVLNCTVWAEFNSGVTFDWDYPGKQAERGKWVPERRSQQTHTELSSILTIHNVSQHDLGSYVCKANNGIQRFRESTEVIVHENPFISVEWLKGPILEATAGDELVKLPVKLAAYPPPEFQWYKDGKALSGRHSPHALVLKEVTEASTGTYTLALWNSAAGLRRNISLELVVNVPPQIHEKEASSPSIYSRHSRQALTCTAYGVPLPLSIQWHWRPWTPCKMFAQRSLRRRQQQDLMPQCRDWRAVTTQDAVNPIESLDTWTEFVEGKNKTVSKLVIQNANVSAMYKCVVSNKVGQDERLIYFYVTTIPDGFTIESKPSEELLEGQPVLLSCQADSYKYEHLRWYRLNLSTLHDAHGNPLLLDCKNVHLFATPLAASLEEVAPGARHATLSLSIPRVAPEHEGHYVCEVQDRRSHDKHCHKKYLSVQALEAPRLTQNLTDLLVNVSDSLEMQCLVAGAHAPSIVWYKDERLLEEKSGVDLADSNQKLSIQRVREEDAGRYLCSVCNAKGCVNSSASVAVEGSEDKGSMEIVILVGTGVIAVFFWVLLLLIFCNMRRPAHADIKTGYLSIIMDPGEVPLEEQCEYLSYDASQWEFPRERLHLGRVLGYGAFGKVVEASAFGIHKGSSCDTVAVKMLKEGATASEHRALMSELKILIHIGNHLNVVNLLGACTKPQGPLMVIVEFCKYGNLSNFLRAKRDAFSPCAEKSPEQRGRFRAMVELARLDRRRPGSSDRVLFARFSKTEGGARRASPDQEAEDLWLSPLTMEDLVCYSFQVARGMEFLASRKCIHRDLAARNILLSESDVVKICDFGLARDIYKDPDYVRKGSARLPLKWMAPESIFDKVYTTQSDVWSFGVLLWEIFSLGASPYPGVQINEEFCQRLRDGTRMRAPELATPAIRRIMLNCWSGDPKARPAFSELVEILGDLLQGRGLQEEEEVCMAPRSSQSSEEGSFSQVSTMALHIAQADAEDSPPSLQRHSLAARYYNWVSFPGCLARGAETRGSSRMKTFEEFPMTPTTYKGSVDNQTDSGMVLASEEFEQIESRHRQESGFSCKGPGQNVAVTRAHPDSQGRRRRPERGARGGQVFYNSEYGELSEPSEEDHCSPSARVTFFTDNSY
Method: as §1

HER2 = HER2 (Homo sapiens, UniProt P04626)
Method: as §1

IRR = biological target: T7, IRR (Homo sapiens, UniProt P14616)
T7 construct: purchased Carna Biosciences
Method: as §1

JNK3 = JNK3 (Homo sapiens, UniProt P53779)
Method: as §1

LYNb = biological target: T8, LYNb (Homo sapiens, UniProt P07948)
T8 construct: purchased Carna Biosciences
Method: as §1

MAPKAPK2 = biological target: T9, MAPKAPK2 (Homo sapiens, UniProt P49137)
T9 construct: purchased Carna Biosciences
Method: as §1

MET = biological target: T10, MET (Homo sapiens, UniProt P08581)
T10 construct: purchased Carna Biosciences
Method: as §1

MST1 = MST1 (Homo sapiens, UniProt Q13043)
Method: as §1

NEK1 = biological target: T11, NEK1 (Homo sapiens, UniProt Q96PY6)
T11 construct: purchased Carna Biosciences
Method: as §1

NEK7 = NEK7 (Homo sapiens, UniProt Q8TDX7)
Method: as §1

NEK9 = biological target: T12, NEK9 (Homo sapiens, UniProt Q8TD19)
T12 construct: purchased Carna Biosciences
Method: as §1

PDK1 = PDK1 (Homo sapiens, UniProt O15530)
Method: as §1

PKD2 = biological target: T13, PKD2 (Homo sapiens, UniProt Q9BZL6)
T13 construct: purchased Carna Biosciences
Method: as §1

ROCK1 = ROCK1 (Homo sapiens, UniProt Q13464)
Method: as §1

RSK4 = biological target: T14, RSK4 (Homo sapiens, UniProt Q9UK32)
T14 construct: purchased Carna Biosciences
T14 sequence (Q9UK32 whole entry): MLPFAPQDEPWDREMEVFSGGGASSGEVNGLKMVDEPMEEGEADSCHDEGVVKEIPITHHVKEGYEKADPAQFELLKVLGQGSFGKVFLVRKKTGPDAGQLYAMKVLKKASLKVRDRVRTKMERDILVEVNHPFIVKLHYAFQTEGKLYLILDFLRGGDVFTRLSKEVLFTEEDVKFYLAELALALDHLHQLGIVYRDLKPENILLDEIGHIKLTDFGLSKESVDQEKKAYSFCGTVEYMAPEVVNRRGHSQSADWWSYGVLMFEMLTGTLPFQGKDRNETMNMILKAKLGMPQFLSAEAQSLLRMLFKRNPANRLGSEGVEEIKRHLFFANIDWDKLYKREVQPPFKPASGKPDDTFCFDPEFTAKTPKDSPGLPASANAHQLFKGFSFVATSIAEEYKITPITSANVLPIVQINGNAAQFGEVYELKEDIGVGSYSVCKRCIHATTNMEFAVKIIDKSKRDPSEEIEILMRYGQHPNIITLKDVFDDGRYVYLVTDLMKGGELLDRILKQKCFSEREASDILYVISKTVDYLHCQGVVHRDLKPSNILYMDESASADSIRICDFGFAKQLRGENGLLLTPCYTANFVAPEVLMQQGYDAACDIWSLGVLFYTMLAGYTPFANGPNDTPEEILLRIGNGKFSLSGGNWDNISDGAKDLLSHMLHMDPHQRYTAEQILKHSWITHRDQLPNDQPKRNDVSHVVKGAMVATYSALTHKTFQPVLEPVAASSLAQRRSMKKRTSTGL
Method: as §1

SRC = SRC (Homo sapiens, UniProt P12931)
Method: as §1

SYK = SYK (Homo sapiens, UniProt P43405)
Method: as §1

TSSK1 = biological target: T15, TSSK1 (Homo sapiens, UniProt Q9BXA7)
T15 construct: purchased Carna Biosciences
Method: as §1

p38γ = p38γ (Homo sapiens, UniProt P53778)
Method: as §1

p70S6K = p70S6K (Homo sapiens, UniProt P23443)
Method: as §1

C[C@@H](N)COc1ccc(-c2cnc3ccc(N[C@H](C)c4cccc(F)c4)nn23)cc1.O=C(O)CCCCC(=O)O [DS-6051b]
inhibition at 0.2 µM (AurB): -12.2%
inhibition at 0.2 µM (BRK): 13.4%
inhibition at 0.2 µM (CDC2/CycB1): -6.7%
inhibition at 0.2 µM (CDC7/ASK): 8.5%
inhibition at 0.2 µM (CDK3/CycE1): -1.2%
inhibition at 0.2 µM (CLK1): 2%
inhibition at 0.2 µM (CSK): 1%
inhibition at 0.2 µM (CaMK4): -3.3%
inhibition at 0.2 µM (DYRK1A): -11.4%
inhibition at 0.2 µM (EGFR(T790M)): -1.6%
inhibition at 0.2 µM (EPHA1): 4.8%
inhibition at 0.2 µM (EPHA2): -2.2%
inhibition at 0.2 µM (EPHA4): -3.4%
inhibition at 0.2 µM (EPHA7): -4.9%
inhibition at 0.2 µM (EPHB1): -3.5%
inhibition at 0.2 µM (EPHB2): -1.7%
inhibition at 0.2 µM (EPHB3): -0.7%
inhibition at 0.2 µM (EPHB4): -6.2%
inhibition at 0.2 µM (Erk2): -3.8%
inhibition at 0.2 µM (Erk5): 5.2%
inhibition at 0.2 µM (FES): 5.1%
inhibition at 0.2 µM (FGFR4): 3.7%
inhibition at 0.2 µM (FLT4): -4.4%
inhibition at 0.2 µM (HER2): 8.7%
inhibition at 0.2 µM (IRR): 16.8%
inhibition at 0.2 µM (JNK3): 0.655%
inhibition at 0.2 µM (LYNb): 4.8%
inhibition at 0.2 µM (MAPKAPK2): -8.5%
inhibition at 0.2 µM (MET): -6.2%
inhibition at 0.2 µM (MST1): 11.5%
inhibition at 0.2 µM (NEK1): -5.2%
inhibition at 0.2 µM (NEK7): -2%
inhibition at 0.2 µM (NEK9): -3.5%
inhibition at 0.2 µM (PDK1): -4.9%
inhibition at 0.2 µM (PKD2): -17.3%
inhibition at 0.2 µM (ROCK1): -4.5%
inhibition at 0.2 µM (RSK4): -5.4%
inhibition at 0.2 µM (SRC): 9%
inhibition at 0.2 µM (SYK): -2.5%
inhibition at 0.2 µM (TSSK1): -2.6%
inhibition at 0.2 µM (p38γ): 0.224%
inhibition at 0.2 µM (p70S6K): 8.3%
